Measurements from article PMC11790914, “Chemogenomics for steroid hormone receptors (NR3)” (Communications Chemistry, 2025).
Where “and” joins values, the source holds several entries; their conditions need not be identical. Equal values may be shown once. Read-outs that look alike come from different tables or passages of the source.

Tests used:
[1] = system: HEK293T cells; test: Cytotoxicity: metabolic activity (WST-8 / CCK-8 assay); conditions: HEK293T, 24 h, WST-8, normalized to 0.1% DMSO, single replicates
[2] = system: NF-κB activity in HEK293 NF-κB reporter cells; test: NF-kB activity assay (GFP reporter, ionomycin/PMA); type: cell-based; conditions: for Mean NFκB response: n=3
Outline: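 HEK293 NF-κB GFP reporter cells given compound in 0.1% DMSO for 4 h, then stimulated with ionomycin 100 ng/mL plus PMA 10 ng/mL. Imaged every 90 min over 24 h; GFP-positive cell count normalized to confluence, three independent biological replicates.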

[3] = biological target: T1, TRIM24 (Homo sapiens, UniProt O15164); test: Liability panel screening by DSF: TRIM24; type: binding; conditions: DSF, 20 µM, n=2; read-out: Mean ΔTM TRIM24
T1 construct: This panel comprised ten highly ligandable kinases and bromodomains; made in house
T1 sequence (O15164 899-1004 limits assumed): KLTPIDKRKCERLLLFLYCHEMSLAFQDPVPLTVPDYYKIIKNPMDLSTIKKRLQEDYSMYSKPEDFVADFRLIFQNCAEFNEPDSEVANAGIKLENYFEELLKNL
Outline: (§1)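 Recombinant protein at 2 µM in 10 mM HEPES pH 7.5 with 500 mM NaCl was mixed with SYPRO Orange (1:1000) and heated at 3 °C/min up to 85 °C. Tm was taken as the Boltzmann-fit inflection point. Shifts are ∆Tm in K from technical duplicates.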

[4] = biological target: T2, CSNK1D (Homo sapiens, UniProt P48730); test: Liability panel screening by DSF: CSNK1D; type: binding; conditions: DSF, 20 µM, n=2; read-out: Mean ΔTM CSNK1D
T2 construct: made in house
Outline: as §1

[5] = biological target: T3, ABL1 (Homo sapiens, UniProt P00519); test: Liability panel screening by DSF: ABL1; type: binding; conditions: DSF, 20 µM, n=2; read-out: Mean ΔTM ABL1
T3 construct: made in house
Outline: as §1

[6] = system: Gal4-VP16; type: cell-based; conditions: vs. DMSO ctrl, single replicates n=1-3
[7] = biological target: T4, CDK2 (Homo sapiens, UniProt P24941); test: Liability panel screening by DSF: CDK2; type: binding; conditions: DSF, 20 µM, n=2; read-out: Mean ΔTM CDK2
T4 construct: made in house
Outline: as §1

[8] = system: ATF6 activity in Hela ATF6 reporter cells; test: Endoplasmic reticulum stress assay (ATF6 Renilla luciferase reporter, tunicamycin); type: cell-based
Outline: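 HeLa ATF6 Renilla reporter cells were pretreated 4 h with compounds in 0.1% DMSO, then stimulated with tunicamycin (100 ng/mL) for 18 h. Renilla luminescence (DualGlo) was normalized to 0.1% DMSO control; five independent experiments.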

[9] = biological target: T5, GSK3B (Homo sapiens, UniProt P49841); test: Liability panel screening by DSF: GSK3B; type: binding; conditions: DSF, 20 µM, n=2; read-out: Mean ΔTM GSK3B
T5 construct: made in house

[10] = system: HEK293T cells; test: Cytotoxicity: growth-rate (change in confluence over 24 h); conditions: normalized to 0.1% DMSO control, single replicates (n=1...)
Procedure: Cells were incubated with the test compounds at the indicated concentrations solubilized with 0.1% DMSO for 24 h. Growth-rate was determined based on the change in confluence over 24 h normalized to the change in confluence of cells treated with the 0.1% DMSO control (n = 10). Metabolic activity was determined with a water-soluble tetrazolium-8 (WST-8) assay (n = 8) after 24 h treatment. Apoptotic cells were detected with a fluorogenic DNA dye coupled to the caspase-3/7 recognition sequence (DEVD) after 24 h treatment and the apoptotic cell count was normalized to 0.1% DMSO treated cells (n = 6).
HEK293T cells (German Collection of Microorganisms and Cell Culture GmbH, DSMZ; #ACC305) were cultured in DMEM high glucose, supplemented with 10% fetal calf serum (FCS), sodium pyruvate (1 mM), penicillin (100 µ/mL) and streptomycin (100 µg/mL) at 37 °C and 5% (v/v) CO2, and seeded in pre-coated (10 µg/mL collagen G solution (Merck KgaA; #L7213) for 30 min at 37 °C) 96-well plates (2 × 10^5 cells per well). After 24 h, the cells were treated with the respective NR3 CG compound candidate at the recommended concentration, bexarotene (100 µM) or doxorubicin (30 µM) as positive controls in DMEM high glucose supplemented with 0.1% FCS, penicillin (100 µ/mL), streptomycin (100 µg/mL) and 0.1% DMSO, or 0.1% DMSO alone as an untreated control. Each sample was prepared in at least four biologically independent replicates. […] Thereafter, the medium was aspirated and the cells were incubated for 3 h with 90 µL DMEM high glucose supplemented with 0.2% FCS, penicillin (100 µ/mL) and streptomycin (100 µg/mL) and additionally containing 10 µL Cell Counting Kit 8 solution (CCK-8; MedChemExpress, Monmouth Junction, New York, USA; #HY-K0301), and absorbance was measured at 1 h, 2 h and 3 h of incubation at 450 nm on a Tecan Spark Cyto to assess metabolic activity of the cells. Before drug administration, after the first medium exchange, 24 h after drug administration, and after fluorescence imaging cell confluence was assessed using the Tecan Spark Cyto, to account for changes in cell confluence due to drug administration and cell handling. Compound effects on cell confluence, apoptosis, metabolic activity and necrosis were normalized to the vehicle control of each biological replicate individually.

[11] = biological target: T6, AURKA (Homo sapiens, UniProt O14965); test: Liability panel screening by DSF: AURKA; type: binding; conditions: DSF, 20 µM, n=2; read-out: Mean ΔTM AURKA
T6 construct: made in house
T6 sequence (O14965 1-403): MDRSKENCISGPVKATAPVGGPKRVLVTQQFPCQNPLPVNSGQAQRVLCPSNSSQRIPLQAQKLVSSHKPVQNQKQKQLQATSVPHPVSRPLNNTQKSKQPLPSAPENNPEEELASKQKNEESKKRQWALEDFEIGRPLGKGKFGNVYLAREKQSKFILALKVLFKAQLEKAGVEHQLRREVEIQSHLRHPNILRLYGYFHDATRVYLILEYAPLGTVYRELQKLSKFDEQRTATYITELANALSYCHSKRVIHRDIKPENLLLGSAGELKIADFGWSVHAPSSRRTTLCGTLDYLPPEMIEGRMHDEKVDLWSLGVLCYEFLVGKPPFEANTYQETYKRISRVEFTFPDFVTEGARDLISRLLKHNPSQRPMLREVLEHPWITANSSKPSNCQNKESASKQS
Outline: as §1

[12] = system: HEK293T cells; test: Cytotoxicity: necrosis induction (red fluorescent dye for permeable plasma membranes); type: cell-based; conditions: 24 h, necrotic cell count normalized to 0.1% DMSO, single replicates;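 also: compounds applied in DMEM high glucose with 0.1% FCS and 0.1% DMSO, necrotic HEK293T cells counted by red staining of cells whose plasma membranes had become permeable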
[13] = system: HEK293T cells; test: Cytotoxicity: apoptosis induction (caspase-3/7 DEVD fluorogenic DNA dye); conditions: HEK293T, 24 h; for Apoptosis induction [AI]: apoptotic cell count normalized to 0.1% DMSO, single replicates
[14] = biological target: T7, BRD4 (Homo sapiens, UniProt O60885); test: Liability panel screening by DSF: BRD4; type: binding; conditions: DSF, 20 µM, n=2; read-out: Mean ΔTM BRD4
T7 construct: This panel comprised ten highly ligandable kinases and bromodomains; made in house
Outline: as §1

T2 sequence (P48730 whole entry, species assumed): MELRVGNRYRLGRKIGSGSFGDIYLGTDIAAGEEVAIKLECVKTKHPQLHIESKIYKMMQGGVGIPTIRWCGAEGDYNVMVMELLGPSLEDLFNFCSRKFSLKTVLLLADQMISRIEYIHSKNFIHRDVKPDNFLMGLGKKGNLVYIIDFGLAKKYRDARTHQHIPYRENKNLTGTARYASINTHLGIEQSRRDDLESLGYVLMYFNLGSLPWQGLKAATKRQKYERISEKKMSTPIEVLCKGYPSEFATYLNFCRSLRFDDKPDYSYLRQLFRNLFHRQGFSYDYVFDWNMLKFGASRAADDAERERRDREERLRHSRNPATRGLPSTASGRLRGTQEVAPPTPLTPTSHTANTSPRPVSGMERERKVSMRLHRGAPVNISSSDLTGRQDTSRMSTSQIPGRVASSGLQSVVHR
T3 sequence (P00519 whole entry, species assumed): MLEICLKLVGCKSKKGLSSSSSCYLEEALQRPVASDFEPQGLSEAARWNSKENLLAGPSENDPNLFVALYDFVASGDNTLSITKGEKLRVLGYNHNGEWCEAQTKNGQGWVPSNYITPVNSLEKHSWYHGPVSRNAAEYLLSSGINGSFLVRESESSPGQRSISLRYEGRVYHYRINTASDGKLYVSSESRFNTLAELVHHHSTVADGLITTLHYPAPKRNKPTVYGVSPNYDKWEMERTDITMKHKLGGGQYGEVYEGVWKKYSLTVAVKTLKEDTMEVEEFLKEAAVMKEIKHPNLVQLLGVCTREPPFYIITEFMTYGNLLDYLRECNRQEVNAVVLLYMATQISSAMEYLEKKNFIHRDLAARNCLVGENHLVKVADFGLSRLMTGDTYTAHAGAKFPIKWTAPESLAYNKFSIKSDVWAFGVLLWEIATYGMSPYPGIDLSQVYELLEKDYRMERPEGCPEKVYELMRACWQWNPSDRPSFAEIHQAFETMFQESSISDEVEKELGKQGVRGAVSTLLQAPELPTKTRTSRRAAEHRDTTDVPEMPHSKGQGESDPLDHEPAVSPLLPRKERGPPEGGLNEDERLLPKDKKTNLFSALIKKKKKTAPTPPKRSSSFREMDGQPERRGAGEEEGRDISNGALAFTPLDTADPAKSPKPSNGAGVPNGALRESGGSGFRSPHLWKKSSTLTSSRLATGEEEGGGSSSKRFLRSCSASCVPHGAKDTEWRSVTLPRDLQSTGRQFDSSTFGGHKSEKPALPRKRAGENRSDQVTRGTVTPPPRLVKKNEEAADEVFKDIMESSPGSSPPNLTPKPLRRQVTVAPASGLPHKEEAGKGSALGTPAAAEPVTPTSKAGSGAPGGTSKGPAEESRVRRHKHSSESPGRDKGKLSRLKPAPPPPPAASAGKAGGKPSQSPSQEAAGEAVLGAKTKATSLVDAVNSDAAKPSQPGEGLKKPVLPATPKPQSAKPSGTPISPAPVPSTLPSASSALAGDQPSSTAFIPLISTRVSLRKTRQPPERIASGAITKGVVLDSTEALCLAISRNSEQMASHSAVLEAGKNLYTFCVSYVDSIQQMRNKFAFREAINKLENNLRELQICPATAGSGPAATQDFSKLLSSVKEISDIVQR
T5 sequence (P49841 whole entry, species assumed): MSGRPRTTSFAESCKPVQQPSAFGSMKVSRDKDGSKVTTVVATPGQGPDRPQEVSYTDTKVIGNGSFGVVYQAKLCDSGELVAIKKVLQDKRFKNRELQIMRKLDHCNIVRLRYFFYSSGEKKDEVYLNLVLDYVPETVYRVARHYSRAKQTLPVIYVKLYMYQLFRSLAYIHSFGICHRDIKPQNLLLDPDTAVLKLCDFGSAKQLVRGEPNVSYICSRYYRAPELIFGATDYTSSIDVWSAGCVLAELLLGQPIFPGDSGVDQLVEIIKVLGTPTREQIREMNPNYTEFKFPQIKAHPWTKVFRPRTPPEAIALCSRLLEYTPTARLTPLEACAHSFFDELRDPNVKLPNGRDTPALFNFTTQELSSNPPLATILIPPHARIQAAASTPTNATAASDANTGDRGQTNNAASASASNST

C[C@@H]1Cc2c([nH]c3ccccc23)[C@@H](c2c(F)cc(/C=C/C(=O)O)cc2F)N1CC(C)(C)F [AZD9496]
Metabolic activity [MA] ([1]; 1 µM): 1.04 (3×) and 1.02 and 0.97 and 0.99 and 1.00 (2×)
Mean NFκB response ([2]; 1 µM, 1,5 h): 3183.32 GFP+-cells/confluence ∙ 1000
Mean NFκB response ([2]; 1 µM, 4,5 h): 3743.71 GFP+-cells/confluence ∙ 1000
Mean NFκB response ([2]; 1 µM, 7,5 h): 6968.05 GFP+-cells/confluence ∙ 1000
Mean NFκB response ([2]; 1 µM, 10,5 h): 12962.04 GFP+-cells/confluence ∙ 1000
Mean NFκB response ([2]; 1 µM, 13,5 h): 18218.90 GFP+-cells/confluence ∙ 1000
Mean NFκB response ([2]; 1 µM, 16,6 h): 22070.92 GFP+-cells/confluence ∙ 1000
Mean NFκB response ([2]; 1 µM, 19,5 h): 24828.05 GFP+-cells/confluence ∙ 1000
Mean NFκB response ([2]; 1 µM, 22,5 h): 27011.69 GFP+-cells/confluence ∙ 1000
Mean NFκB response ([2]; 1 µM, 3 h): 3319.11 GFP+-cells/confluence ∙ 1000
Mean NFκB response ([2]; 1 µM, 6 h): 4897.81 GFP+-cells/confluence ∙ 1000
Mean NFκB response ([2]; 1 µM, 9 h): 10141.67 GFP+-cells/confluence ∙ 1000
Mean NFκB response ([2]; 1 µM, 12 h): 15818.86 GFP+-cells/confluence ∙ 1000
Mean NFκB response ([2]; 1 µM, 15 h): 20214.01 GFP+-cells/confluence ∙ 1000
Mean NFκB response ([2]; 1 µM, 18 h): 23720.26 GFP+-cells/confluence ∙ 1000
Mean NFκB response ([2]; 1 µM, 21 h): 26076.44 GFP+-cells/confluence ∙ 1000
Mean NFκB response ([2]; 1 µM, 24 h): 27738.19 GFP+-cells/confluence ∙ 1000
NF-κB activity (inflammatory response to ionomycin/PMA) ([2]; HEK293 NF-κB reporter cells, compounds at recommended concentrations, imaged over 24 h, n = 3): reducing the inflammatory response
ΔTm at 20 µM [3]: -0.62 °C
ΔTm at 20 µM [4]: 0.64 °C
ΔTm at 20 µM [5]: -0.24 °C
VP16 control [fold reporter gene activity] ([6]; 1 µM): 1.31 fold reporter gene activity and 1.10 fold reporter gene activity and 1.59 fold reporter gene activity
ΔTm at 20 µM [7]: -0.07 °C
activity at 1 µM ([8]; Homo sapiens, HeLa, 1 µM, single replicates n=1 to n=5, read-out: ER stress [rel. ATF6 activity]): 101%
ΔTm at 20 µM [9]: 0 °C
Growth rate [GR] ([10]; 1 µM): 1.04 and 0.96 and 0.95 and 1.23 and 0.78 and 0.74 (3×) and 1.43 and 4.43
ΔTm at 20 µM [11]: -0.16 °C
Necrosis induction [NI] ([12]; 1 µM): 1.09 and 0.96 and 0.78 and 2.03
Apoptosis induction [AI] ([13]; 1 µM): 0.64 and 1.56 and 0.90 and 1.15 and 1.90 and 3.05
apoptosis induction ([13]; budesonide (3 µM), others at tested concentration): slight apoptosis induction
ΔTm at 20 µM [14]: 0.36 °C

CCN(CC)c1ccc(/C=N/NC(=O)c2ccc(O)cc2)cc1 [DY131]
Metabolic activity [MA] ([1]; 3 µM): 0.98 and 0.95 (2×) and 0.82 and 0.96 and 0.93 and 0.87 and 0.92
Mean NFκB response ([2]; 3 µM, 1,5 h): 3734.45 GFP+-cells/confluence ∙ 1000
Mean NFκB response ([2]; 3 µM, 4,5 h): 4226.03 GFP+-cells/confluence ∙ 1000
Mean NFκB response ([2]; 3 µM, 7,5 h): 9363.33 GFP+-cells/confluence ∙ 1000
Mean NFκB response ([2]; 3 µM, 10,5 h): 20103.33 GFP+-cells/confluence ∙ 1000
Mean NFκB response ([2]; 3 µM, 13,5 h): 29726.67 GFP+-cells/confluence ∙ 1000
Mean NFκB response ([2]; 3 µM, 16,6 h): 36476.67 GFP+-cells/confluence ∙ 1000
Mean NFκB response ([2]; 3 µM, 19,5 h): 41143.33 GFP+-cells/confluence ∙ 1000
Mean NFκB response ([2]; 3 µM, 22,5 h): 44036.67 GFP+-cells/confluence ∙ 1000
Mean NFκB response ([2]; 3 µM, 3 h): 4084.29 GFP+-cells/confluence ∙ 1000
Mean NFκB response ([2]; 3 µM, 6 h): 5799.09 GFP+-cells/confluence ∙ 1000
Mean NFκB response ([2]; 3 µM, 9 h): 14733.33 GFP+-cells/confluence ∙ 1000
Mean NFκB response ([2]; 3 µM, 12 h): 25326.67 GFP+-cells/confluence ∙ 1000
Mean NFκB response ([2]; 3 µM, 15 h): 33133.33 GFP+-cells/confluence ∙ 1000
Mean NFκB response ([2]; 3 µM, 18 h): 38383.33 GFP+-cells/confluence ∙ 1000
Mean NFκB response ([2]; 3 µM, 21 h): 42820.00 GFP+-cells/confluence ∙ 1000
Mean NFκB response ([2]; 3 µM, 24 h): 45096.67 GFP+-cells/confluence ∙ 1000
ΔTm at 20 µM [3]: -3.28 °C
ΔTm at 20 µM [4]: -0.0354 °C
ΔTm at 20 µM [5]: 0.66 °C
VP16 control [fold reporter gene activity] ([6]; 3 µM): 1.12 fold reporter gene activity and 1.24 fold reporter gene activity and 1.20 fold reporter gene activity
ΔTm at 20 µM [7]: 0.35 °C
ATF6 activity (tunicamycin-induced endoplasmic reticulum stress) ([8]; Hela ATF6 reporter cells, tunicamycin 100 ng/mL, 18 h, compounds at recommended concentrations, n = 5): strongly ameliorated the tunicamycin-induced endoplasmic reticulum stress
activity at 3 µM ([8]; Homo sapiens, HeLa, 3 µM, single replicates n=1 to n=5, read-out: ER stress [rel. ATF6 activity]): 25%
ΔTm at 20 µM [9]: -0.28 °C
Growth rate [GR] ([10]; 3 µM): 0.59 and 11.37 and 0.74 and 0.90 and 0.70 and 0.29 and 0.57 and 4.91 and 1.76 and 192.70
ΔTm at 20 µM [11]: -2.05 °C
Necrosis induction [NI] ([12]; 3 µM): 0.73 and 0.89 and 0.91 and 0.92
Apoptosis induction [AI] ([13]; 3 µM): -15.91 and -17.65 and -9.63 and -8.53 and 1.25 and 1.40
ΔTm at 20 µM [14]: -0.92 °C
